# PubChem BioAssay (NCI)
#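 The concentration for 50% growth inhibition is given as GI50. TGI denotes the concentration required for complete inhibition of growth.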
# How the values were obtained:
# Assay in all cases: DTP human tumour cell line panel, 384-well format
# 786-0 renal = test system: 786-0 renal
# BT-549 breast = test system: BT-549 breast
# CAKI-1 renal = test system: CAKI-1 renal
# CCRF-CEM leukemia = test system: CCRF-CEM leukemia
# HCT-116 colon = test system: HCT-116 colon
# HCT-15 colon = test system: HCT-15 colon
# HL-60(TB) leukemia = test system: HL-60(TB) leukemia
# HOP-62 NSCLC = test system: HOP-62 NSCLC
# K-562 leukemia = test system: K-562 leukemia
# LOX IMVI melanoma = test system: LOX IMVI melanoma
# M14 melanoma = test system: M14 melanoma
# MALME-3M melanoma = test system: MALME-3M melanoma
# MDA-MB-231 breast = test system: MDA-MB-231 breast
# MDA-MB-468 breast = test system: MDA-MB-468 breast
# MOLT-4 leukemia = test system: MOLT-4 leukemia
# NCI-H522 lung = test system: NCI-H522 lung
# OVCAR-8 ovarian = test system: OVCAR-8 ovarian
# RPMI-8226 leukemia = test system: RPMI-8226 leukemia
# RXF 393 renal = test system: RXF 393 renal
# SF-268 CNS = test system: SF-268 CNS
# SF-295 CNS = test system: SF-295 CNS
# SF-539 CNS = test system: SF-539 CNS
# SK-MEL-2 melanoma = test system: SK-MEL-2 melanoma
# SN12C renal = test system: SN12C renal
# SNB-19 CNS = test system: SNB-19 CNS
# SNB-75 CNS = test system: SNB-75 CNS
# SW-620 colon = test system: SW-620 colon
# U251 glioblastoma = test system: U251 glioblastoma
# UACC-62 melanoma = test system: UACC-62 melanoma
# A498 renal = test system: A498 renal
# A549 NSCLC = test system: A549 NSCLC
# ACHN renal = test system: ACHN renal
# COLO 205 colon = test system: COLO 205 colon
# DU-145 prostate = test system: DU-145 prostate
# EKVX NSCLC = test system: EKVX NSCLC
# HCC-2998 colon = test system: HCC-2998 colon
# HOP-92 NSCLC = test system: HOP-92 NSCLC
# HS 578T breast = test system: HS 578T breast
# HT29 colon = test system: HT29 colon
# IGROV1 ovarian = test system: IGROV1 ovarian
# KM12 colon = test system: KM12 colon
# MCF7 breast = test system: MCF7 breast
# MDA-MB-435 melanoma = test system: MDA-MB-435 melanoma
# NCI-H226 lung = test system: NCI-H226 lung
# NCI-H23 lung = test system: NCI-H23 lung
# NCI-H322M lung = test system: NCI-H322M lung
# NCI-H460 NSCLC = test system: NCI-H460 NSCLC
# NCI/ADR-RES ovarian = test system: NCI/ADR-RES ovarian
# OVCAR-3 ovarian = test system: OVCAR-3 ovarian
# OVCAR-4 ovarian = test system: OVCAR-4 ovarian
# OVCAR-5 ovarian = test system: OVCAR-5 ovarian
# PC-3 prostate = test system: PC-3 prostate
# SK-MEL-28 melanoma = test system: SK-MEL-28 melanoma
# SK-MEL-5 melanoma = test system: SK-MEL-5 melanoma
# SK-OV-3 ovarian = test system: SK-OV-3 ovarian
# SR leukemia = test system: SR leukemia
# T-47D breast = test system: T-47D breast
# TK-10 renal = test system: TK-10 renal
# UACC-257 melanoma = test system: UACC-257 melanoma
# UO-31 renal = test system: UO-31 renal
compound,measurement,setting,value
O=NN(CCCl)C(=O)NCCCl,GI50,786-0 renal,43.3 µM
same,GI50,BT-549 breast,36 µM
same,GI50,CAKI-1 renal,81.2 µM
same,GI50,CCRF-CEM leukemia,22.3 µM
same,TGI,CCRF-CEM leukemia,40.9 µM
same,GI50,HCT-116 colon,49.8 µM
same,GI50,HCT-15 colon,46.5 µM
same,GI50,HL-60(TB) leukemia,15.1 µM
same,TGI,HL-60(TB) leukemia,28.5 µM
same,GI50,HOP-62 NSCLC,34.6 µM
same,GI50,K-562 leukemia,46.5 µM
same,GI50,LOX IMVI melanoma,24.2 µM
same,GI50,M14 melanoma,69.9 µM
same,GI50,MALME-3M melanoma,75.9 µM
same,GI50,MDA-MB-231 breast,55.9 µM
same,GI50,MDA-MB-468 breast,23.7 µM
same,GI50,MOLT-4 leukemia,15.6 µM
same,TGI,MOLT-4 leukemia,29.5 µM
same,GI50,NCI-H522 lung,32.4 µM
same,GI50,OVCAR-8 ovarian,97.8 µM
same,GI50,RPMI-8226 leukemia,20 µM
same,TGI,RPMI-8226 leukemia,48.7 µM
same,GI50,RXF 393 renal,56.9 µM
same,GI50,SF-268 CNS,15.9 µM
same,GI50,SF-295 CNS,25.4 µM
same,TGI,SF-295 CNS,73 µM
same,GI50,SF-539 CNS,24.4 µM
same,TGI,SF-539 CNS,90.1 µM
same,GI50,SK-MEL-2 melanoma,61.5 µM
same,GI50,SN12C renal,74.1 µM
same,GI50,SNB-19 CNS,56.2 µM
same,GI50,SNB-75 CNS,26.7 µM
same,GI50,SW-620 colon,54.2 µM
same,GI50,U251 glioblastoma,23.9 µM
same,GI50,UACC-62 melanoma,19.4 µM
CCCS(=O)(=O)Nc1ccc(F)c(C(=O)c2c[nH]c3ncc(Cl)cc23)c1F,GI50,786-0 renal,10.9 µM
same,TGI,786-0 renal,25.6 µM
same,GI50,A498 renal,5.21 µM
same,TGI,A498 renal,20.3 µM
same,GI50,A549 NSCLC,12.3 µM
same,TGI,A549 NSCLC,41.2 µM
same,GI50,ACHN renal,4.26 µM
same,TGI,ACHN renal,18.7 µM
same,GI50,BT-549 breast,15.5 µM
same,TGI,BT-549 breast,29.3 µM
same,GI50,CAKI-1 renal,6.54 µM
same,TGI,CAKI-1 renal,46 µM
same,GI50,CCRF-CEM leukemia,11.7 µM
same,TGI,CCRF-CEM leukemia,24 µM
same,GI50,COLO 205 colon,0.144 µM
same,TGI,COLO 205 colon,13.6 µM
same,GI50,DU-145 prostate,9.18 µM
same,TGI,DU-145 prostate,27.9 µM
same,GI50,EKVX NSCLC,16.3 µM
same,TGI,EKVX NSCLC,41.3 µM
same,GI50,HCC-2998 colon,20.6 µM
same,TGI,HCC-2998 colon,35.1 µM
same,GI50,HCT-116 colon,8.39 µM
same,TGI,HCT-116 colon,23.8 µM
same,GI50,HCT-15 colon,9.16 µM
same,TGI,HCT-15 colon,22 µM
same,GI50,HL-60(TB) leukemia,11.2 µM
same,TGI,HL-60(TB) leukemia,23.3 µM
same,GI50,HOP-62 NSCLC,13.3 µM
same,TGI,HOP-62 NSCLC,32.5 µM
same,GI50,HOP-92 NSCLC,15 µM
same,TGI,HOP-92 NSCLC,36.3 µM
same,GI50,HS 578T breast,4.5 µM
same,TGI,HS 578T breast,15.4 µM
same,GI50,HT29 colon,0.71 µM
same,TGI,HT29 colon,17.1 µM
same,GI50,IGROV1 ovarian,4.47 µM
same,TGI,IGROV1 ovarian,17.3 µM
same,GI50,K-562 leukemia,11.3 µM
same,TGI,K-562 leukemia,23.7 µM
same,GI50,KM12 colon,14.3 µM
same,TGI,KM12 colon,33.3 µM
same,GI50,LOX IMVI melanoma,2.64 µM
same,TGI,LOX IMVI melanoma,15.9 µM
same,GI50,M14 melanoma,0.0582 µM
same,TGI,M14 melanoma,2.1 µM
same,GI50,MALME-3M melanoma,0.0363 µM
same,TGI,MALME-3M melanoma,0.118 µM
same,GI50,MCF7 breast,20.3 µM
same,TGI,MCF7 breast,50.7 µM
same,GI50,MDA-MB-231 breast,15.3 µM
same,TGI,MDA-MB-231 breast,29.8 µM
same,GI50,MDA-MB-435 melanoma,0.681 µM
same,TGI,MDA-MB-435 melanoma,17.7 µM
same,GI50,MDA-MB-468 breast,10.3 µM
same,TGI,MDA-MB-468 breast,23.5 µM
same,GI50,MOLT-4 leukemia,12.3 µM
same,TGI,MOLT-4 leukemia,24.9 µM
same,GI50,NCI-H226 lung,16.5 µM
same,TGI,NCI-H226 lung,32.6 µM
same,GI50,NCI-H23 lung,18.3 µM
same,TGI,NCI-H23 lung,37.8 µM
same,GI50,NCI-H322M lung,10.1 µM
same,TGI,NCI-H322M lung,80.2 µM
same,GI50,NCI-H460 NSCLC,6.96 µM
same,TGI,NCI-H460 NSCLC,21.3 µM
same,GI50,NCI-H522 lung,16.1 µM
same,TGI,NCI-H522 lung,32.1 µM
same,GI50,NCI/ADR-RES ovarian,17.1 µM
same,TGI,NCI/ADR-RES ovarian,33.6 µM
same,GI50,OVCAR-3 ovarian,13.5 µM
same,TGI,OVCAR-3 ovarian,29.7 µM
same,GI50,OVCAR-4 ovarian,21.1 µM
same,TGI,OVCAR-4 ovarian,59.1 µM
same,GI50,OVCAR-5 ovarian,19.2 µM
same,TGI,OVCAR-5 ovarian,64.3 µM
same,GI50,OVCAR-8 ovarian,13.5 µM
same,TGI,OVCAR-8 ovarian,39.5 µM
same,GI50,PC-3 prostate,16.3 µM
same,TGI,PC-3 prostate,41 µM
same,GI50,RPMI-8226 leukemia,4.76 µM
same,TGI,RPMI-8226 leukemia,15.7 µM
same,GI50,RXF 393 renal,4.12 µM
same,TGI,RXF 393 renal,13.8 µM
same,GI50,SF-268 CNS,17.5 µM
same,TGI,SF-268 CNS,44.7 µM
same,GI50,SF-295 CNS,7.44 µM
same,TGI,SF-295 CNS,27.3 µM
same,GI50,SF-539 CNS,15.1 µM
same,TGI,SF-539 CNS,35.3 µM
same,GI50,SK-MEL-28 melanoma,0.0544 µM
same,TGI,SK-MEL-28 melanoma,0.549 µM
same,GI50,SK-MEL-5 melanoma,1.05 µM
same,TGI,SK-MEL-5 melanoma,15 µM
same,GI50,SK-OV-3 ovarian,4.11 µM
same,TGI,SK-OV-3 ovarian,19.8 µM
same,GI50,SN12C renal,19.6 µM
same,TGI,SN12C renal,68.3 µM
same,GI50,SNB-19 CNS,31.3 µM
same,TGI,SNB-19 CNS,86 µM
same,GI50,SNB-75 CNS,11.2 µM
same,TGI,SNB-75 CNS,34.2 µM
same,GI50,SR leukemia,3.93 µM
same,TGI,SR leukemia,14.2 µM
same,GI50,SW-620 colon,31.6 µM
same,TGI,SW-620 colon,60 µM
same,GI50,T-47D breast,17.7 µM
same,TGI,T-47D breast,55.6 µM
same,GI50,TK-10 renal,10.3 µM
same,TGI,TK-10 renal,28.4 µM
same,GI50,U251 glioblastoma,13.1 µM
same,TGI,U251 glioblastoma,27.2 µM
same,GI50,UACC-257 melanoma,0.183 µM
same,TGI,UACC-257 melanoma,1.18 µM
same,GI50,UO-31 renal,13.3 µM
same,TGI,UO-31 renal,36.6 µM
